The results in this text go back to ChEMBL document CHEMBL4219063, “New photodynamic molecular beacons (PMB) as potential cancer-targeted agents in PDT” (Bioorg Med Chem, 2018).

Active and inactive are the calls of the source. The calls are words filed in the database; no cut-off is given here. Square brackets hold non-standard residues; d marks the D form. Peptide text beside a SMILES is read from it. * marks the point of attachment. ξ: configuration not given here. Benzoyl(4-TriPhPorphyrinyl) = O=C(c1ccc(-c2c3nc(c(-c4ccccc4)c4ccc([nH]4)c(-c4ccccc4)c4nc(c(-c5ccccc5)c5ccc2[nH]5)C=C4)C=C3)cc1)*; Pyropheophorbide(a) = C=Cc1c(C)c2cc3nc(c4c5[nH]c(cc6nc(cc1[nH]2)C(C)=C6CC)c(C)c5C(=O)C4)[C@@H](CCC(=O)*)[C@@H]3C; X2 = COc1cc(/N=N/c2cc3c4c(c2OCCCCCC(=O)*)CCCN4CCC3)c(OC)cc1/N=N/c1ccc([N+](=O)[O-])cc1; X1 = CCN(CC)c1ccc2nc3ccc(/N=N/c4ccc(N(C)CCCC(=O)*)cc4)cc3[n+](-c3ccccc3)c2c1; ξThr(3R) = C[C@@H](O)C(N)C(=O)O; AEEA = NCCOCCOCC(=O)O

One series addresses MMP14 (Homo sapiens, UniProt P50281). In words: Substrate activity at MMP14 (unknown origin) assessed as enzyme-mediated substrate hydrolysis at 100 umol/L after 8 hrs by UV-HPLC method relative to control. The series is classed as ADME. The following applies: read-out: Drug metabolism.
A further series concerns the target MMP2 (Homo sapiens, UniProt P08253). In words: Substrate activity at MMP2 (unknown origin) assessed as enzyme-mediated substrate hydrolysis at 100 umol/L after 8 hrs by UV-HPLC method relative to control. The series is classed as ADME. Particulars: read-out: Drug metabolism.
The nature of series [1]: In vitro photodynamic activity in ethanol assessed as decrease in singlet oxygen production by spectrophotometry. It counts as functional. Also noted: scale not given: the % may be the effect or the level left.
A short description of series [2]: In vitro photodynamic activity in ethanol assessed as fluorescence quenching by time-correlated single photon counting method. The series is classed as functional.
The next series has as its target MMP9 (Homo sapiens, UniProt P14780). The series is described as follows: Substrate activity at MMP9 (unknown origin) assessed as enzyme-mediated substrate hydrolysis at 100 umol/L after 8 hrs by UV-HPLC method relative to control. It counts as ADME. Particulars: read-out: Drug metabolism.
The target of series [3] is Matrix metalloproteinase-14 (Mus musculus) (UniProt P53690). The series is described as follows: Substrate activity at MT1-MMP in mouse B16F1 cells assessed as enzyme-mediated substrate cleavage at 100 uM after 24 hrs by HPLC analysis. The series is classed as cell-based.

MMP2, sequence (P08253 whole entry): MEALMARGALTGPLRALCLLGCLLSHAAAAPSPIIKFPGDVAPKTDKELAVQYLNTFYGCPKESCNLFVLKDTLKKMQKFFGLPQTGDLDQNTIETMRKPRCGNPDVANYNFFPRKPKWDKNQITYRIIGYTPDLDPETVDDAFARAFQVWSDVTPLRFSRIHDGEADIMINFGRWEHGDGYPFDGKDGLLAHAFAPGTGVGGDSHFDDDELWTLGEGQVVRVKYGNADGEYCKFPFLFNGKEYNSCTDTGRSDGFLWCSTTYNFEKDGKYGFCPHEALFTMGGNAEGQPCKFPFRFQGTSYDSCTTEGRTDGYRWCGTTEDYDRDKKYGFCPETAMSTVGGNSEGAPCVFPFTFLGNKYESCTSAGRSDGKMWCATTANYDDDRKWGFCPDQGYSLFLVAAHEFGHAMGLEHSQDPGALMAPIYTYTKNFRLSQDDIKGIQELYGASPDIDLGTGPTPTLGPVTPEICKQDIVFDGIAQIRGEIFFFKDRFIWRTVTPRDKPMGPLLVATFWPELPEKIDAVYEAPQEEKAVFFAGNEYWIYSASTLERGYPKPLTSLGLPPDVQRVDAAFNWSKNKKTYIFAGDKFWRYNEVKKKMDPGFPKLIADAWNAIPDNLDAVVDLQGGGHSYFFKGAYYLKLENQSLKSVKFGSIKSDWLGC
MMP9, sequence (P14780 whole entry): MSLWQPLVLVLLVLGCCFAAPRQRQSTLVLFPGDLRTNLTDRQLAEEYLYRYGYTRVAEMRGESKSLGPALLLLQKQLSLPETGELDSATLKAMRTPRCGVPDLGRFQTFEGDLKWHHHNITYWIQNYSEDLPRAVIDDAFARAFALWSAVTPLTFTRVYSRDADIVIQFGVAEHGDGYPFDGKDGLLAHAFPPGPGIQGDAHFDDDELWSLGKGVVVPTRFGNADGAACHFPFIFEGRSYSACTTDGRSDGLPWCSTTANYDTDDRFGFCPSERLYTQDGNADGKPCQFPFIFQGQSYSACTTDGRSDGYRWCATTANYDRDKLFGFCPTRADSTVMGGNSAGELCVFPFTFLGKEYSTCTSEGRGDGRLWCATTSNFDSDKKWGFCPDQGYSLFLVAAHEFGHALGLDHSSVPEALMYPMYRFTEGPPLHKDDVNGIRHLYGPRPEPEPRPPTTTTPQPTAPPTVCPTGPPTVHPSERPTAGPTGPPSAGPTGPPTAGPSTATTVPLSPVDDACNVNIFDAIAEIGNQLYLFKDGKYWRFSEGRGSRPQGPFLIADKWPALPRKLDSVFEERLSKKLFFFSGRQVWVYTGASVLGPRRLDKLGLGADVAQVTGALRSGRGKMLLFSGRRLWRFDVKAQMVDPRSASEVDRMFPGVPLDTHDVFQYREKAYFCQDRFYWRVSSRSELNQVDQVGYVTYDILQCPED

Regarding `CC[C@H](C)[C@H](NC(=O)[C@H](CCCNC(=N)N)NC(=O)CN)C(=O)NCC(=O)N[C@@H](Cc1ccccc1)C(=O)N[C@@H](CC(C)C)C(=O)N[C@@H](CCCNC(=N)N)C(=O)N[C@H](C(=O)N[C@@H](C)C(=O)N[C@@H](CCCCNC(=O)CCCCCOc1c(/N=N/c2cc(OC)c(/N=N/c3ccc([N+](=O)[O-])cc3)cc2OC)cc2c3c1CCCN3CCC2)C(=O)NCC(=O)NCC(=O)O)[C@@H](C)O`, the metabolised at 8 h, 100 µM at MMP14 turned out to be 31%.
`CC[C@H](C)[C@H](NC(=O)[C@H](CCCNC(=N)N)NC(=O)CN)C(=O)NCC(=O)N[C@@H](Cc1ccccc1)C(=O)N[C@@H](CC(C)C)C(=O)N[C@@H](CCCNC(=N)N)C(=O)NC(C(=O)N[C@@H](C)C(=O)N[C@@H](CCCCNC(=O)CCCN(C)c1ccc(/N=N/c2ccc3nc4ccc(N(CC)CC)cc4[n+](-c4ccccc4)c3c2)cc1)C(=O)NCC(=O)NCC(=O)O)[C@@H](C)O` (stereo partly drawn) (H-GRIGFLR[ξThr(3R)]AK(X1)GG-OH): the metabolised at 8 h, 100 µM on MMP2 was 26%; at MMP14, 86%.
Regarding `CC[C@H](C)[C@H](NC(=O)[C@H](CCCNC(=N)N)NC(=O)CNC(=O)COCCOCCN)C(=O)NCC(=O)N[C@@H](Cc1ccccc1)C(=O)N[C@@H](CC(C)C)C(=O)N[C@@H](CCCNC(=N)N)C(=O)N[C@H](C(=O)N[C@@H](C)C(=O)N[C@@H](CCCCN)C(=O)NCC(=O)NCC(=O)O)[C@@H](C)O` (H-[AEEA]GRIGFLRTAKGG-OH), the figures for the metabolised at 8 h, 100 µM at MMP2 and on MMP14 were 20% and 100%, respectively.
Turning to `CC[C@H](C)[C@H](NC(=O)[C@H](CCCNC(=N)N)NC(=O)CNC(=O)COCCOCCNC(=O)c1ccc(-c2c3nc(c(-c4ccccc4)c4ccc([nH]4)c(-c4ccccc4)c4nc(c(-c5ccccc5)c5ccc2[nH]5)C=C4)C=C3)cc1)C(=O)NCC(=O)N[C@@H](Cc1ccccc1)C(=O)N[C@@H](CC(C)C)C(=O)N[C@@H](CCCNC(=N)N)C(=O)N[C@H](C(=O)N[C@@H](C)C(=O)N[C@@H](CCCCNC(=O)CCCN(C)c1ccc(/N=N/c2ccc3nc4ccc(N(CC)CC)cc4[n+](-c4ccccc4)c3c2)cc1)C(=O)NCC(=O)NCC(=O)O)[C@@H](C)O` ({Benzoyl(4-TriPhPorphyrinyl)-AEEA}-GRIGFLRTAK(X1)GG-OH), the Activity in series [1] is 100%; in series [2], 80%.
Regarding `CC[C@H](C)[C@H](NC(=O)[C@H](CCCNC(=N)N)NC(=O)CNC(=O)COCCOCCNC(=O)c1ccc(-c2c3nc(c(-c4ccccc4)c4ccc([nH]4)c(-c4ccccc4)c4nc(c(-c5ccccc5)c5ccc2[nH]5)C=C4)C=C3)cc1)C(=O)NCC(=O)N[C@@H](Cc1ccccc1)C(=O)N[C@@H](CC(C)C)C(=O)N[C@@H](CCCNC(=N)N)C(=O)N[C@H](C(=O)N[C@@H](C)C(=O)N[C@@H](CCCCN)C(=O)NCC(=O)NCC(=O)O)[C@@H](C)O` ({Benzoyl(4-TriPhPorphyrinyl)-AEEA}-GRIGFLRTAKGG-OH), the metabolised at 8 h, 100 µM at MMP9 amounted to 2%; at MMP2 it was 3%.
In the case of `CC[C@H](C)[C@H](NC(=O)[C@H](CCCNC(=N)N)NC(=O)CNC(=O)c1ccc(-c2c3nc(c(-c4ccccc4)c4ccc([nH]4)c(-c4ccccc4)c4nc(c(-c5ccccc5)c5ccc2[nH]5)C=C4)C=C3)cc1)C(=O)NCC(=O)N[C@@H](Cc1ccccc1)C(=O)N[C@@H](CC(C)C)C(=O)N[C@@H](CCCNC(=N)N)C(=O)N[C@H](C(=O)N[C@@H](C)C(=O)N[C@@H](CCCCNC(=O)CCCN(C)c1ccc(/N=N/c2ccc3nc4ccc(N(CC)CC)cc4[n+](-c4ccccc4)c3c2)cc1)C(=O)NCC(=O)NCC(=O)O)[C@@H](C)O` ({Benzoyl(4-TriPhPorphyrinyl)}-GRIGFLRTAK(X1)GG-OH), the Activity is 100% in series [1] and 80% in series [2].
For the compound `CC[C@H](C)[C@H](NC(=O)[C@H](CCCNC(=N)N)NC(=O)CNC(=O)c1ccc(-c2c3nc(c(-c4ccccc4)c4ccc([nH]4)c(-c4ccccc4)c4nc(c(-c5ccccc5)c5ccc2[nH]5)C=C4)C=C3)cc1)C(=O)NCC(=O)N[C@@H](Cc1ccccc1)C(=O)N[C@@H](CC(C)C)C(=O)N[C@@H](CCCNC(=N)N)C(=O)N[C@H](C(=O)N[C@@H](C)C(=O)N[C@@H](CCCCNC(=O)CCCCCOc1c(/N=N/c2cc(OC)c(/N=N/c3ccc([N+](=O)[O-])cc3)cc2OC)cc2c3c1CCCN3CCC2)C(=O)NCC(=O)NCC(=O)O)[C@@H](C)O` ({Benzoyl(4-TriPhPorphyrinyl)}-GRIGFLRTAK(X2)GG-OH), the outcome in series [3] was Active. Also, the Activity in series [1] worked out at 80%; in series [2] it was 90%.
Take `C=Cc1c(C)c2cc3nc(c4c5[nH]c(cc6nc(cc1[nH]2)C(C)=C6CC)c(C)c5C(=O)C4)[C@@H](CCC(=O)NCC(=O)N[C@@H](CCCNC(=N)N)C(=O)N[C@H](C(=O)NCC(=O)N[C@@H](Cc1ccccc1)C(=O)N[C@@H](CC(C)C)C(=O)N[C@@H](CCCNC(=N)N)C(=O)N[C@H](C(=O)N[C@@H](C)C(=O)N[C@@H](CCCCNC(=O)CCCN(C)c1ccc(/N=N/c2ccc4nc5ccc(N(CC)CC)cc5[n+](-c5ccccc5)c4c2)cc1)C(=O)NCC(=O)NCC(=O)O)[C@@H](C)O)[C@@H](C)CC)[C@@H]3C` ({Pyropheophorbide(a)}-GRIGFLRTAK(X1)GG-OH): the Activity in series [1] is 100%; in series [2], 93%.
On the same counts, the results for `C=Cc1c(C)c2cc3nc(c4c5[nH]c(cc6nc(cc1[nH]2)C(C)=C6CC)c(C)c5C(=O)C4)[C@@H](CCC(=O)NCC(=O)N[C@@H](CCCNC(=N)N)C(=O)N[C@H](C(=O)NCC(=O)N[C@@H](Cc1ccccc1)C(=O)N[C@@H](CC(C)C)C(=O)N[C@@H](CCCNC(=N)N)C(=O)N[C@H](C(=O)N[C@@H](C)C(=O)N[C@@H](CCCCNC(=O)CCCCCOc1c(/N=N/c2cc(OC)c(/N=N/c4ccc([N+](=O)[O-])cc4)cc2OC)cc2c4c1CCCN4CCC2)C(=O)NCC(=O)NCC(=O)O)[C@@H](C)O)[C@@H](C)CC)[C@@H]3C` ({Pyropheophorbide(a)}-GRIGFLRTAK(X2)GG-OH) are 77% and 88%.
`C=Cc1c(C)c2cc3nc(c4c5[nH]c(cc6nc(cc1[nH]2)C(C)=C6CC)c(C)c5C(=O)C4)[C@@H](CCC(=O)NCC(=O)N[C@@H](CCCNC(=N)N)C(=O)N[C@H](C(=O)NCC(=O)N[C@@H](Cc1ccccc1)C(=O)N[C@@H](CC(C)C)C(=O)N[C@@H](CCCNC(=N)N)C(=O)N[C@H](C(=O)N[C@@H](C)C(=O)N[C@@H](CCCCN)C(=O)NCC(=O)NCC(=O)O)[C@@H](C)O)[C@@H](C)CC)[C@@H]3C` ({Pyropheophorbide(a)}-GRIGFLRTAKGG-OH): the metabolised at 8 h, 100 µM on MMP9 stood at 5%.
Take H-GRIGFLRTAKGG-OH: the metabolised at 8 h, 100 µM came out at 26% at MMP2 and 99% on MMP14.
